According to US12527846B2, “Immunodominant proteins and fragments in multiple sclerosis” (UNIVERSITÄT ZÜRICH, priority 2018, dated 2026):
pEC50: −log10 of the molar value. Ends that are not written are not given here.

Key:
TCC21.1 [1] = experiment: Proliferation of TCC21.1 in response to GDP-L-fucose synthase peptides presented by autologous APCs; type: cell-based, human; conditions: 15-mer peptides overlapping by 10 AAs, presented by autologous PBMCs
TCC21.1 [2] = type: cell-based, human
Protocol: TCC21.1 was then tested with the complete decapeptide positional scanning library (200 mixtures; i.e. mixtures representing the 10 positions of a 10-mer and in each of the fixed positions one of the 20 L-amino acids), presented by BCL expressing DRB1*15:01 class II molecules. A similar response pattern was obtained with IL-10 release. Next, a biometrical analysis scoring matrix was generated by assigning numerical values to the stimulatory potential of each of the 20 defined AAs in each of the ten positions of the decapeptide library as previously described (Zhao et al., 2001). Here, the values were calculated as the log base 10 of the median GM-CSF (pg/ml) secretion of three independent experiments in the presence of mixtures, minus the secretion in the absence of mixtures (FIG. 3B). Based on a model of independent contribution of individual AAs to peptide antigen recognition, the predicted stimulatory score of a given peptide is the sum of the matrix values of each AA contained in the peptide at each position (Zhao et al., 2001). […] Using the new “harmonic boost” frame 1 and frame 2 matrices, all natural overlapping 10-mers peptides derived from the UniProt human protein database were scored and ranked as schematically shown in FIG. 2. […]

TCC21.1 [3] = experiment: Intracellular cytokine staining of TCC21.1 after peptide stimulation; type: cell-based, human
Protocol: Next, the response of TCC21.1 to GDP-L-fucose synthase peptides presented by autologous irradiated PBMCs and BCL was characterized. GDP-L-fucose synthase peptides presented by the two types of APCs were able to induce proliferation. The functional phenotype of this response was also analyzed. […] Unexpectedly, when peptides were presented by autologous BCL, they induced higher levels of IFNγ. In addition, TCC21.1 also released GM-CSF and IL-3 in response to GDP-L-fucose synthase peptides. The release of these two cytokines seems to be a specific feature of this TCC compared with other Th1, Th1* or Th1/2 TLCs that were generated from patients with different conditions. Intracellular cytokine staining confirmed the Th2 functional phenotype of TCC21.1 in response to GDP-L-fucose synthase (96-105, SEQ ID NO: 16). More than 60% of TCC21.1 cells were IL-4+ after stimulation with GDP-L-fucose synthase (96-105, SEQ ID NO: 16), while only around 12% were IFNγ+. Around 60% of the cells were GM-CSF+ and 47.7% of these also IL-4+.
For intracellular cytokine staining, TCC21.1 was analyzed 48 h after stimulation. After 5 h in presence of GolgiStop protein transport inhibitor (BD Biosciences), T cells were labeled with Live/Dead® Aqua (Invitrogen). Following fixation and permeabilization with Cytofix/Cytoperm (BD Biosciences), cells were stained with antibodies against CD4 (APC-Cy7, Biolegend), IFN-γ (FITC, Biolegend), IL-4 (PE, BD Bioscience), GM-CSF (APC, Biolegend) and IL-3 (PE, Biolegend) in PBS containing saponin and BSA, and analyzed by flow cytometry.

TCC14 [4] = experiment: Cytokine secretion of TCC14 on recognition of the RASGRP2 peptide; type: cell-based, human; conditions: data not shown
TCC14 [5] = conditions: read-out: EC50 (antigen avidity); dose titration, BLS DR2b, proliferation after 72 h

Q: How did the “recognition by TCC21.1 (proliferation)” value (TCC21.1 [1]) turn out when “VHMNDNVLHSAFEVG (listed as Homo sapiens) [SEQ ID NO: 14]” was run?
A: recognized

Q: “VLHSAFEVGA (listed as Homo sapiens) [SEQ ID NO: 18]” was tested. Which “GM-CSF release by TCC21.1 (stimulatory capacity)” value (TCC21.1 [2]; individual decapeptides at 5 pg/ml, presented by BLS cells expressing DRB1*15:01) did it give?
A: induced GM-CSF release

Q: With NVLHSAFEVG [SEQ ID NO: 16, NVLHSAFEVG] as the sequence, how does the EC50 (TCC21.1 [2]) read?
A: 0.2 µg/mL

Q: What about the “GM-CSF+ TCC21.1 cells also IL-4+” value (TCC21.1 [3]) of the same sequence?
A: 47.7%

Q: What about the “TCC21.1 cells GM-CSF+” value (TCC21.1 [3]) of the same sequence?
A: Around 60%

Q: And the “TCC21.1 cells IFNγ+” value (TCC21.1 [3])?
A: around 12%

Q: What about the “TCC21.1 cells IL-4+” value (TCC21.1 [3]) of the same sequence?
A: More than 60%

Q: Which “cytokine secretion by TCC14” value (TCC14 [4]) does the source give for LVRYWISAFP [SEQ ID NO: 33, LVRYWISAFP] here?
A: secretion of Th2 cytokines and also of IFN-γ

Q: What about the pEC50 (TCC14 [5]) of the same sequence?
A: 7.92

Q: How did the “recognition by TCC21.1 (proliferation)” value (TCC21.1 [1]) turn out when “NVLHSAFEVGARKVV (listed as Homo sapiens) [SEQ ID NO: 17]” was run?
A: recognized
